# Experiments:
# bedstraw = assay: Test B pre/postemergence bedstraw; assay type: in vivo, Galium aparine
# Outline: (§1)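 Test chemicals in a non-phytotoxic solvent mixture with surfactant were sprayed preemergence onto planted seeds and postemergence onto plants 2 to 18 cm tall (1- to 4-leaf stage). After twelve to sixteen days in a greenhouse, injury was visually rated against untreated controls from 0 (no effect) to 10 (complete control).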
# velvetleaf = assay: Test B pre/postemergence velvetleaf; assay type: in vivo, Abutilon theophrasti
# Outline: as §1
# crabgrass = assay: Test B pre/postemergence crabgrass; assay type: in vivo, Digitaria sanguinalis
# Outline: as §1
# soybean = assay: Test B pre/postemergence soybean; assay type: in vivo, Glycine max
# Outline: as §1
# morningglory = assay: Test B pre/postemergence morningglory; assay type: in vivo, Ipomoea hederacea
# Outline: as §1
# pigweed = assay: Test B pre/postemergence pigweed; assay type: in vivo, Amaranthus retroflexus
# Outline: as §1
# blackgrass = assay: Test B pre/postemergence blackgrass; assay type: in vivo, Alopecurus myosuroides
# Outline: as §1
# corn = assay: Test B pre/postemergence corn; assay type: in vivo, Zea mays
# Outline: as §1
# wild oat = assay: Test B pre/postemergence wild oat; assay type: in vivo, Avena fatua
# Outline: as §1
# surinam grass = assay: Test B pre/postemergence surinam grass; assay type: in vivo, Brachiaria decumbens
# Outline: as §1
# sugar beet = assay: Test B pre/postemergence sugar beet; assay type: in vivo, Beta vulgaris
# Outline: as §1
# cocklebur = assay: Test B pre/postemergence cocklebur; assay type: in vivo, Xanthium strumarium
# Outline: as §1
# giant foxtail = assay: Test B pre/postemergence giant foxtail; assay type: in vivo, Setaria faberii
# Outline: as §1
# purple nutsedge = assay: Test B pre/postemergence purple nutsedge; assay type: in vivo, Cyperus rotundus
# Outline: as §1
# rape = assay: Test B pre/postemergence rape; assay type: in vivo, Brassica napus
# Outline: as §1
# wheat = assay: Test B pre/postemergence wheat; assay type: in vivo, Triticum aestivum
# Outline: as §1
# [1] = Postemergence, Rate 31 g/ha, visual rating, scale 0 to 10 (0 no effect, 10 complete control)
# [2] = Postemergence, Rate 62 g/ha, scale of 0 to 10, 0 is no effect, 10 is complete control
# [3] = Postemergence, Rate 125 g/ha, scale 0 to 10, 0 is no effect, 10 is complete control
# [4] = Preemergence, Rate 31 g/ha, visual rating, scale 0 to 10 (0 no effect, 10 complete control)
# [5] = Preemergence, Rate 62 g/ha, scale 0 to 10 (0 no effect, 10 complete control)
# [6] = Preemergence, Rate 125 g/ha, scale 0 to 10, 0 is no effect, 10 is complete control
# [7] = Rate 250 g/ha, Postemergence, scale of 0 to 10 where 0 is no effect and 10 is complete control
compound,measurement,setting,value
CC(C)N(C(=O)n1oc(=O)n(C[Si](C)(C)C)c1=O)c1ccc(Cl)cc1 [Compound 548],Bedstraw plant response rating,bedstraw; [1],0
same,Bedstraw plant response rating,bedstraw; [2],0
same,Bedstraw plant response rating,bedstraw; [3],4
same,Bedstraw plant response rating,bedstraw; [4],9
same,Bedstraw plant response rating,bedstraw; [5],8
same,Bedstraw plant response rating,bedstraw; [6],10
same,Bedstraw plant response rating (0 to 10 scale),"bedstraw; Preemergence, Rate 250 g/ha",10
same,"Plant response rating, Bedstraw",bedstraw; [7],9
same,Velvetleaf plant response rating,velvetleaf; [1],0
same,Velvetleaf plant response rating,velvetleaf; [2],0
same,Velvetleaf plant response rating,velvetleaf; [3],0
same,Velvetleaf plant response rating,velvetleaf; [5],0
same,Velvetleaf plant response rating,velvetleaf; [6],0
same,Velvetleaf plant response rating (0 to 10 scale),"velvetleaf; Preemergence, Rate 250 g/ha",0
same,"Plant response rating, Velvetleaf",velvetleaf; [7],0
same,Crabgrass plant response rating,crabgrass; [1],0
same,Crabgrass plant response rating,crabgrass; [3],5
same,Crabgrass plant response rating,crabgrass; [4],4
same,Crabgrass plant response rating,crabgrass; [5],9
same,Crabgrass plant response rating,crabgrass; [6],9
same,Crabgrass plant response rating (0 to 10 scale),"crabgrass; Preemergence, Rate 250 g/ha",10
same,Soybean plant response rating,soybean; [1],1
same,Soybean plant response rating,soybean; [2],2
same,Soybean plant response rating,soybean; [3],2
same,Soybean plant response rating,soybean; [5],0
same,Soybean plant response rating,soybean; [6],0
same,Soybean plant response rating (0 to 10 scale),"soybean; Preemergence, Rate 250 g/ha",0
same,"Plant response rating, Soybean",soybean; [7],2
same,Morningglory plant response rating,morningglory; [1],1
same,Morningglory plant response rating,morningglory; [2],5
same,Morningglory plant response rating,morningglory; [5],0
same,Morningglory plant response rating,morningglory; [6],0
same,Morningglory plant response rating (0 to 10 scale),"morningglory; Preemergence, Rate 250 g/ha",0
same,"Plant response rating, Morningglory",morningglory; [7],8
same,Redroot pigweed plant response rating,pigweed; [1],0
same,Redroot pigweed plant response rating,pigweed; [2],0
same,Redroot pigweed plant response rating,pigweed; [3],0
same,Redroot pigweed plant response rating,pigweed; [5],0
same,Redroot pigweed plant response rating,pigweed; [6],0
same,Redroot pigweed plant response rating (0 to 10 scale),"pigweed; Preemergence, Rate 250 g/ha",2
same,"Plant response rating, Redroot pigweed",pigweed; [7],2
same,Blackgrass plant response rating,blackgrass; [1],0
same,Blackgrass plant response rating,blackgrass; [2],0
same,Blackgrass plant response rating,blackgrass; [3],0
same,Blackgrass plant response rating,blackgrass; [4],0
same,Blackgrass plant response rating,blackgrass; [5],0
same,Blackgrass plant response rating,blackgrass; [6],3
same,Blackgrass plant response rating (0 to 10 scale),"blackgrass; Preemergence, Rate 250 g/ha",3
same,"Plant response rating, Blackgrass",blackgrass; [7],3
same,Corn plant response rating,corn; [1],0
same,Corn plant response rating,corn; [2],0
same,Corn plant response rating,corn; [3],0
same,Corn plant response rating,corn; [4],0
same,Corn plant response rating,corn; [5],0
same,Corn plant response rating,corn; [6],0
same,Corn plant response rating (0 to 10 scale),"corn; Preemergence, Rate 250 g/ha",0
same,"Plant response rating, Corn",corn; [7],0
same,Wild oats plant response rating,wild oat; [1],0
same,Wild oats plant response rating,wild oat; [2],0
same,Wild oats plant response rating,wild oat; [3],0
same,Wild oats plant response rating,wild oat; [5],0
same,Wild oats plant response rating,wild oat; [6],0
same,Wild oats plant response rating (0 to 10 scale),"wild oat; Preemergence, Rate 250 g/ha",2
same,"Plant response rating, Wild oats",wild oat; [7],0
same,B. signalgrass plant response rating,surinam grass; [1],0
same,B. signalgrass plant response rating,surinam grass; [2],0
same,B. signalgrass plant response rating,surinam grass; [3],0
same,B. signalgrass plant response rating,surinam grass; [4],0
same,B. signalgrass plant response rating,surinam grass; [5],0
same,B. signalgrass plant response rating,surinam grass; [6],2
same,"B. signalgrass plant response rating (0 to 10 scale, 0 is no effect, 10 is complete control)","surinam grass; Preemergence, Rate 250 g/ha",3
same,"Plant response rating, B. signalgrass",surinam grass; [7],0
same,Sugarbeets plant response rating,sugar beet; [1],0
same,Sugarbeets plant response rating,sugar beet; [2],0
same,Sugarbeets plant response rating,sugar beet; [3],0
same,Sugarbeets plant response rating,sugar beet; [5],0
same,Sugarbeets plant response rating,sugar beet; [6],0
same,Sugarbeets plant response rating (0 to 10 scale),"sugar beet; Preemergence, Rate 250 g/ha",2
same,"Plant response rating, Sugarbeets",sugar beet; [7],3
same,Cocklebur plant response rating,cocklebur; [1],0
same,Cocklebur plant response rating,cocklebur; [2],0
same,Cocklebur plant response rating,cocklebur; [3],0
same,Cocklebur plant response rating,cocklebur; [4],0
same,Cocklebur plant response rating,cocklebur; [5],0
same,Cocklebur plant response rating,cocklebur; [6],0
same,Cocklebur plant response rating (0 to 10 scale),"cocklebur; Preemergence, Rate 250 g/ha",0
same,"Plant response rating, Cocklebur",cocklebur; [7],0
same,Giant foxtail plant response rating,giant foxtail; [1],0
same,Giant foxtail plant response rating,giant foxtail; [2],0
same,Giant foxtail plant response rating,giant foxtail; [3],0
same,Giant foxtail plant response rating,giant foxtail; [4],9
same,Giant foxtail plant response rating,giant foxtail; [5],9
same,Giant foxtail plant response rating,giant foxtail; [6],9
same,Giant foxtail plant response rating (0 to 10 scale),"giant foxtail; Preemergence, Rate 250 g/ha",10
same,"Plant response rating, Giant foxtail",giant foxtail; [7],0
same,Nutsedge plant response rating,purple nutsedge; [1],0
same,Nutsedge plant response rating,purple nutsedge; [3],0
same,Nutsedge plant response rating,purple nutsedge; [5],0
same,Nutsedge plant response rating,purple nutsedge; [6],0
same,Nutsedge plant response rating (0 to 10 scale),"purple nutsedge; Preemergence, Rate 250 g/ha",0
same,"Plant response rating, Nutsedge",purple nutsedge; [7],0
same,Rape plant response rating,rape; [1],0
same,Rape plant response rating,rape; [3],0
same,Rape plant response rating,rape; [5],0
same,Rape plant response rating,rape; [6],0
same,Rape plant response rating (0 to 10 scale),"rape; Preemergence, Rate 250 g/ha",2
same,"Plant response rating, Rape",rape; [7],7
same,Wheat plant response rating,wheat; [1],0
same,Wheat plant response rating,wheat; [2],0
same,Wheat plant response rating,wheat; [3],0
same,Wheat plant response rating,wheat; [5],0
same,Wheat plant response rating,wheat; [6],0
same,Wheat plant response rating (0 to 10 scale),"wheat; Preemergence, Rate 250 g/ha",0
same,"Plant response rating, Wheat",wheat; [7],2

# Reference: patent publication US6737383B1, “Herbicidal oxadiazolidines” (priority 1999, dated 2004)
